What is called MIC is the lowest concentration that inhibits growth of the organism.

This note sets out measurements from ChEMBL document CHEMBL1158297, “Compounds from Syzygium aromaticum possessing growth inhibitory activity against oral pathogens” (1996).

Assay type in all cases: functional
In assay [1] the test system is Streptococcus mutans. As to the kind of experiment: Antimicrobial activity against Streptococcus mutans Ingbritt by disk diffusion method.
The test system of assay [2] is Actinomyces viscosus. As to the kind of experiment: Antimicrobial activity against Actinomyces viscosus W1053 by disk diffusion method.
The subject of assay [3] is Prevotella intermedia. Nature of the assay: Antimicrobial activity against Prevotella intermedia by disk diffusion method. (In general: Agar diffusion results depend on both activity and mobility in agar.)
The subject of assay [4] is Porphyromonas gingivalis. Nature of the assay: Antimicrobial activity against Porphyromonas gingivalis ATCC 33277 by disk diffusion method.

In brackets after ≈: the same amount, converted by molar mass.

`O=c1oc2c(O)c(O)cc3c(=O)oc4c(O)c(O)cc1c4c23` [ELLAGIC ACID]: the MIC in assay [1], in assay [2], in assay [3] and in assay [4] was 1250 µg/mL (≈ 4140 µM) throughout.

Turning to `CC1(C)CC[C@]2(C(=O)O)CC[C@]3(C)C(=CC[C@@H]4[C@@]5(C)CC[C@H](O)C(C)(C)[C@@H]5CC[C@]43C)[C@@H]2C1` [OLEANOLIC_ACID], the MIC was found to be 1250 µg/mL (≈ 2740 µM) in assay [1], 625 µg/mL (≈ 1370 µM) in assay [2], 1250 µg/mL (≈ 2740 µM) in assay [3] and 625 µg/mL (≈ 1370 µM) in assay [4].

Consider `C[n+]1cc2c3c(ccc2c2ccc4cc5c(cc4c21)OCO5)OCO3` [SANGUINARIUM], for which the MIC is 15 µg/mL in assay [1], 15 µg/mL in assay [2], 2 µg/mL in assay [3] and 2 µg/mL in assay [4].

Regarding `O=c1c(O)c(-c2cc(O)c(O)c(O)c2)oc2cc(O)cc(O)c12` [MYRICETIN], the MIC in assay [1] stood at 2500 µg/mL (≈ 7860 µM); in assay [2] it was 1250 µg/mL (≈ 3930 µM); in assay [3] it was 20 µg/mL (≈ 62.8 µM); in assay [4] it was 20 µg/mL (≈ 62.8 µM).

With `O=C(O)c1cc(O)c(O)c(O)c1` [GALLIC ACID], the MIC in assay [1] is more than 2500 µg/mL; in assay [2] it was 78 µg/mL (≈ 458 µM); in assay [3], 78 µg/mL (≈ 458 µM); in assay [4] it was 156 µg/mL (≈ 917 µM).

Regarding `O=c1c(O)c(-c2ccc(O)cc2)oc2cc(O)cc(O)c12` [KAEMPFEROL], the minimum inhibitory concentration (MIC) in assay [1] stood at 2500 µg/mL (≈ 8730 µM); in assay [2], 1250 µg/mL (≈ 4370 µM); in assay [3], 20 µg/mL (≈ 69.9 µM); in assay [4] it was 20 µg/mL (≈ 69.9 µM).

As to `COc1cc(O)c2c(=O)c(O)c(-c3ccc(O)cc3)oc2c1` [RHAMNOCITRIN], the minimal inhibitory concentration (MIC) in assay [1] was 1250 µg/mL (≈ 4160 µM); in assay [2] it was 1250 µg/mL (≈ 4160 µM); in assay [3] it was 625 µg/mL (≈ 2080 µM); in assay [4], 625 µg/mL (≈ 2080 µM).

For `Cc1cc(=O)c2c(O)c([C@@H]3O[C@H](CO)[C@@H](O)[C@H](O)[C@H]3O)c(O)cc2o1` [BIFLORIN], the MIC in assay [1] is more than 2500 µg/mL; in assay [2] it was more than 2500 µg/mL; in assay [3] it was 625 µg/mL (≈ 1760 µM); in assay [4] it was 625 µg/mL (≈ 1760 µM).
